Measurements published in the supplement of paper PMC10132981, “Formate overflow drives toxic folate trapping in MTHFD1 inhibited cancer cells” (Nature Metabolism, 2023).
± gives the standard deviation of the averaged measurements.

What was measured:
HCT116 = assay: EC50 for viability (resazurin, 96 h); details: RPMI+GlutaMAX (10% FBS, 1% P/S)
SW620 = assay: EC50 for viability (resazurin, 96 h); details: RPMI+GlutaMAX (10% FBS, 1% P/S)
SW620 MTHFD2-/- = assay: cell viability relative to vehicle (resazurin, 96 h); higher = more viable; details: base medium: RPMI + dialysed FBS
Method: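 SW620 WT or MTHFD2-/- cells were treated for 96 h with a compound dilution series (log10 M) in RPMI with normal or dialysed FBS. Viability was read by resazurin and is given as % of vehicle.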

O=c1[nH]cc(F)c(=O)[nH]1 [5-fluorouracil]
EC50 for viability [µM]
Details | metabolite supplement: Folic acid | metabolite supplement: Folinic acid | metabolite supplement: Hypoxanthine | metabolite supplement: Thymidine | metabolite supplement: Thymidine + Folic acid | metabolite supplement: Thymidine + Folinic acid | metabolite supplement: Thymidine + Hypoxanthine | metabolite supplement: Vehicle
HCT116 | – | – | 3.08 | 2.22 | – | – | 3.29 | –
SW620 | 4.72 | 4.28 | 7.63 | 4.39 ± 0.33 | 4.5 | 4.32 | 7.42 | 5.04 ± 0.38

Cc1[nH]nc2c1C(c1cc(CO)cc(-c3ccccc3)c1)(C(C)C)C(C#N)=C(N)O2 (stereo not given) [SHIN1]
Details | EC50 for viability [µM] | cell viability [%]
SW620 MTHFD2-/-, log10 compound concentration (M): -5, supplement / serum: Hypoxanthine | – | 88.2 ± 9
SW620 MTHFD2-/-, log10 compound concentration (M): -5, supplement / serum: Hypoxanthine+Sodium Formate | – | 91.8 ± 12
SW620 MTHFD2-/-, log10 compound concentration (M): -5, supplement / serum: Sodium Formate | – | 83.5 ± 11
SW620 MTHFD2-/-, log10 compound concentration (M): -5, supplement / serum: Vehicle | – | 12.1 ± 2.5
SW620 MTHFD2-/-, log10 compound concentration (M): -5.47712, supplement / serum: Hypoxanthine | – | 102 ± 8.9
SW620 MTHFD2-/-, log10 compound concentration (M): -5.47712, supplement / serum: Hypoxanthine+Sodium Formate | – | 109 ± 5.6
SW620 MTHFD2-/-, log10 compound concentration (M): -5.47712, supplement / serum: Sodium Formate | – | 104 ± 7
SW620 MTHFD2-/-, log10 compound concentration (M): -5.47712, supplement / serum: Vehicle | – | 13.6 ± 1
SW620 MTHFD2-/-, log10 compound concentration (M): -5.95424, supplement / serum: Hypoxanthine | – | 105 ± 8.2
SW620 MTHFD2-/-, log10 compound concentration (M): -5.95424, supplement / serum: Hypoxanthine+Sodium Formate | – | 107 ± 6.6
SW620 MTHFD2-/-, log10 compound concentration (M): -5.95424, supplement / serum: Sodium Formate | – | 99.9 ± 4.8
SW620 MTHFD2-/-, log10 compound concentration (M): -5.95424, supplement / serum: Vehicle | – | 13.9 ± 1.6
SW620 MTHFD2-/-, log10 compound concentration (M): -6.43136, supplement / serum: Hypoxanthine | – | 103 ± 1.6
SW620 MTHFD2-/-, log10 compound concentration (M): -6.43136, supplement / serum: Hypoxanthine+Sodium Formate | – | 109 ± 4
SW620 MTHFD2-/-, log10 compound concentration (M): -6.43136, supplement / serum: Sodium Formate | – | 102 ± 4.2
SW620 MTHFD2-/-, log10 compound concentration (M): -6.43136, supplement / serum: Vehicle | – | 14.8 ± 1.4
SW620 MTHFD2-/-, log10 compound concentration (M): -6.90849, supplement / serum: Hypoxanthine | – | 101 ± 5.4
SW620 MTHFD2-/-, log10 compound concentration (M): -6.90849, supplement / serum: Hypoxanthine+Sodium Formate | – | 104 ± 4.4
SW620 MTHFD2-/-, log10 compound concentration (M): -6.90849, supplement / serum: Sodium Formate | – | 108 ± 3.8
SW620 MTHFD2-/-, log10 compound concentration (M): -6.90849, supplement / serum: Vehicle | – | 16.4 ± 1.8
SW620 MTHFD2-/-, log10 compound concentration (M): -7.38561, supplement / serum: Hypoxanthine | – | 88.3 ± 9.3
SW620 MTHFD2-/-, log10 compound concentration (M): -7.38561, supplement / serum: Hypoxanthine+Sodium Formate | – | 86.8 ± 6.8
SW620 MTHFD2-/-, log10 compound concentration (M): -7.38561, supplement / serum: Sodium Formate | – | 85.4 ± 4.3
SW620 MTHFD2-/-, log10 compound concentration (M): -7.38561, supplement / serum: Vehicle | – | 14 ± 0.95
SW620 MTHFD2-/-, log10 compound concentration (M): -7.86273, supplement / serum: Hypoxanthine | – | 92.2 ± 10
SW620 MTHFD2-/-, log10 compound concentration (M): -7.86273, supplement / serum: Hypoxanthine+Sodium Formate | – | 99.9 ± 8.4
SW620 MTHFD2-/-, log10 compound concentration (M): -7.86273, supplement / serum: Sodium Formate | – | 90.9 ± 5.5
SW620 MTHFD2-/-, log10 compound concentration (M): -7.86273, supplement / serum: Vehicle | – | 27.1 ± 3
SW620 MTHFD2-/-, log10 compound concentration (M): -8.33985, supplement / serum: Hypoxanthine | – | 101 ± 5.1
SW620 MTHFD2-/-, log10 compound concentration (M): -8.33985, supplement / serum: Hypoxanthine+Sodium Formate | – | 102 ± 2.4
SW620 MTHFD2-/-, log10 compound concentration (M): -8.33985, supplement / serum: Sodium Formate | – | 99.8 ± 4.9
SW620 MTHFD2-/-, log10 compound concentration (M): -8.33985, supplement / serum: Vehicle | – | 47.3 ± 3.7
SW620 MTHFD2-/-, log10 compound concentration (M): -8.81697, supplement / serum: Hypoxanthine | – | 101 ± 8
SW620 MTHFD2-/-, log10 compound concentration (M): -8.81697, supplement / serum: Hypoxanthine+Sodium Formate | – | 103 ± 7.2
SW620 MTHFD2-/-, log10 compound concentration (M): -8.81697, supplement / serum: Sodium Formate | – | 99 ± 6.2
SW620 MTHFD2-/-, log10 compound concentration (M): -8.81697, supplement / serum: Vehicle | – | 65.1 ± 3.5
SW620 MTHFD2-/-, log10 compound concentration (M): -9.29409, supplement / serum: Hypoxanthine | – | 96.8 ± 6
SW620 MTHFD2-/-, log10 compound concentration (M): -9.29409, supplement / serum: Hypoxanthine+Sodium Formate | – | 99.9 ± 2.3
SW620 MTHFD2-/-, log10 compound concentration (M): -9.29409, supplement / serum: Sodium Formate | – | 97.1 ± 4.1
SW620 MTHFD2-/-, log10 compound concentration (M): -9.29409, supplement / serum: Vehicle | – | 85.7 ± 3.4
SW620 MTHFD2-/-, log10 compound concentration (M): -9.77121, supplement / serum: Hypoxanthine | – | 102 ± 6
SW620 MTHFD2-/-, log10 compound concentration (M): -9.77121, supplement / serum: Hypoxanthine+Sodium Formate | – | 105 ± 8
SW620 MTHFD2-/-, log10 compound concentration (M): -9.77121, supplement / serum: Sodium Formate | – | 98.8 ± 5.4
SW620 MTHFD2-/-, log10 compound concentration (M): -9.77121, supplement / serum: Vehicle | – | 92.1 ± 5.2
SW620, metabolite supplement: Hypoxanthine | > 10 | –
SW620, metabolite supplement: Sodium Formate | > 10 | –
SW620, metabolite supplement: Thymidine | 1.88 | –
SW620, metabolite supplement: Thymidine + Hypoxanthine | > 10 | –
SW620, metabolite supplement: Thymidine + Sodium Formate | > 10 | –
